Assay results reported in ChEMBL document CHEMBL1949531, “Synthesis and antiviral activities of novel gossypol derivatives” (Bioorg Med Chem Lett, 2012).
Calls of active or inactive are those of the source. The calls are words filed in the database; no cut-off is given here.

Key:
[1] = system: Human immunodeficiency virus 1; test: Antiviral activity against HIV1 3B infected human TZM-bl cells assessed as inhibition of viral replication by luciferase reporter assay; format: functional, organism-based
[2] = Cytotoxicity in human TZM-bl cells by MTT assay; format: cell-based
[3] = molecular target: Albumin (Homo sapiens, UniProt P02768); test: Binding affinity to human serum albumin by fluorescence quenching assay; format: ADME; settings: isolated protein
[4] = system: Influenza A virus; test: Antiviral activity against Influenza A virus (A/Vietnam/1194/2004(H5N1)) infected in MDCK cells assessed as inhibition of viral replication by plaque reduction assay; format: functional, organism-based
[5] = Cytotoxicity against MDCK cells by MTT assay; format: cell-based, Canis lupus familiaris; settings: dog
[6] = Selectivity index, ratio of CC50 for MDCK cells to IC50 for Influenza A virus (A/Vietnam/1194/2004(H5N1)); format: functional
[7] = Selectivity index, ratio of CC50 for human TZM-bl cells to IC50 for HIV1 3B; format: functional
[8] = system: Human immunodeficiency virus 1; test: Antiviral activity against HIV1 3B infected human TZM-bl cells assessed as inhibition of viral replication at 10 uM treated immediately after infection by luciferase reporter assay; format: functional, organism-based
[9] = system: Human immunodeficiency virus 1; test: Antiviral activity against HIV1 3B infected human TZM-bl cells assessed as inhibition of viral replication at 10 uM treated 2 hrs after viral infection by luciferase reporter assay; format: functional, organism-based
[10] = Human immunodeficiency virus 1, 3B, TZM-bl, read-out: IC50

Albumin, sequence (P02768 whole entry): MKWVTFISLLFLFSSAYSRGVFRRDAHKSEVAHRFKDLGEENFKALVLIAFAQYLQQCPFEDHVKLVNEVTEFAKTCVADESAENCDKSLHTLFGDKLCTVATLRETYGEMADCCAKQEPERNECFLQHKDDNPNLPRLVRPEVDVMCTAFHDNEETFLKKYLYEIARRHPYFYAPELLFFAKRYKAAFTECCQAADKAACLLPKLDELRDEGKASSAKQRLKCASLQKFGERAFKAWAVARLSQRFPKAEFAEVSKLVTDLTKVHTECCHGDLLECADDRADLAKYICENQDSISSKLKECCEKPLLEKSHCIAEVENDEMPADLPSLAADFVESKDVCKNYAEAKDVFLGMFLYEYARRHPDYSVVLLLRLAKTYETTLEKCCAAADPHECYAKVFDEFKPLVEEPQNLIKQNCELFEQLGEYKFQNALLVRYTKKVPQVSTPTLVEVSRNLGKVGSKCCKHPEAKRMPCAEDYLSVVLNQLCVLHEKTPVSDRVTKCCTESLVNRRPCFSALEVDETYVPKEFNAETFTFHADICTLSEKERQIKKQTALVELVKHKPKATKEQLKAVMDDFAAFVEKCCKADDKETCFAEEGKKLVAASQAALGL

SMILES	IC50 ([1]; tzm-bl)	CC50 [2]	Ka [3]	IC50 [4]	CC50 [5]	Ratio CC50/IC50 [6]	IC50 [1, 10]	Ratio CC50/IC50 [7]	inhibition [8]	inhibition [9]
COC(=O)[C@H](CC(C)C)N/C=C1\C(=O)C(O)=C(C(C)C)c2cc(C)c(-c3c(C)cc4c(c3O)/C(=C/N[C@@H](CC(C)C)C(=O)OC)C(=O)C(O)=C4C(C)C)c(O)c21	Not Active	33.6 µM	7.1236 ×10³ L/mol	8.63 µM	> 42.8 µM	>5				
Cc1cc2c(c(O)c1-c1c(C)cc3c(c1O)/C(=C/N[C@H](C(=O)[O-])C(C)C)C(=O)C(O)=C3C(C)C)/C(=C/N[C@H](C(=O)[O-])C(C)C)C(=O)C(O)=C2C(C)C.[Na+].[Na+]		70.3 µM	2.114 ×10⁵ L/mol	1.78 µM	> 43.9 µM	>24.64	1.14 µM	61.68	Active	inactive
Cc1cc2c(c(O)c1-c1c(C)cc3c(c1O)/C(=C/NCC(=O)[O-])C(=O)C(O)=C3C(C)C)/C(=C/NCC(=O)[O-])C(=O)C(O)=C2C(C)C.[Na+].[Na+]			1.2462 ×10⁴ L/mol	9.87 µM	> 49.3 µM	>5				
COC(=O)[C@H](C)N/C=C1\C(=O)C(O)=C(C(C)C)c2cc(C)c(-c3c(C)cc4c(c3O)/C(=C/N[C@@H](C)C(=O)OC)C(=O)C(O)=C4C(C)C)c(O)c21	Not Active	25.6 µM	1.0413 ×10⁴ L/mol	1.16 µM	> 48.5 µM	>41.77				
Cc1cc2c(c(O)c1-c1c(C)cc3c(c1O)/C(=C/NCCS(=O)(=O)[O-])C(=O)C(O)=C3C(C)C)/C(=C/NCCS(=O)(=O)[O-])C(=O)C(O)=C2C(C)C.[Na+].[Na+] [MEGOSIN]		53.4 µM	1.7559 ×10⁴ L/mol	8.59 µM	> 43 µM	>5	1.24 µM	43.03		
Cc1cc2c(C(C)C)c(O)c(O)c(/C=N/[C@@H](Cc3ccccc3)C(=O)[O-])c2c(O)c1-c1c(C)cc2c(C(C)C)c(O)c(O)c(/C=N/[C@@H](Cc3ccccc3)C(=O)[O-])c2c1O.[Na+].[Na+]		57.1 µM	1.2835 ×10⁵ L/mol	7.79 µM	> 38.9 µM	>5	1.77 µM	32.27		
Cc1cc2c(c(O)c1-c1c(C)cc3c(c1O)/C(=C/N[C@@H](CS)C(=O)[O-])C(=O)C(O)=C3C(C)C)/C(=C/N[C@@H](CS)C(=O)[O-])C(=O)C(O)=C2C(C)C.[Na+].[Na+]		16.5 µM	8.2016 ×10³ L/mol	43.4 µM	> 43.4 µM	>1	3.73 µM	4.42		
Cc1cc2c(c(O)c1-c1c(C)cc3c(c1O)/C(=C/NCCCCCCCC(=O)[O-])C(=O)C(O)=C3C(C)C)/C(=C/NCCCCCCCC(=O)[O-])C(=O)C(O)=C2C(C)C.[Na+].[Na+]		29.6 µM	2.8629 ×10⁴ L/mol	39.5 µM	> 39.5 µM	>1	2.84 µM	10.44		
Cc1cc2c(c(O)c1-c1c(C)cc3c(c1O)/C(=C/NC(C(=O)[O-])c1ccc(Cl)cc1)C(=O)C(O)=C3C(C)C)/C(=C/NC(C(=O)[O-])c1ccc(Cl)cc1)C(=O)C(O)=C2C(C)C.[Na+].[Na+] (stereo unspecified)		21.9 µM	1.2868 ×10⁴ L/mol	21.5 µM	> 37.2 µM	>1.73	1.28 µM	17.12		
Cc1cc2c(c(O)c1-c1c(C)cc3c(c1O)/C(=C/N[C@H](C(=O)[O-])c1ccccc1)C(=O)C(O)=C3C(C)C)/C(=C/N[C@H](C(=O)[O-])c1ccccc1)C(=O)C(O)=C2C(C)C.[Na+].[Na+]		29.9 µM	1.4015 ×10⁴ L/mol	8.06 µM	> 40.3 µM	>5	1.45 µM	20.64		
Cc1cc2c(c(O)c1-c1c(C)cc3c(c1O)/C(=C/N[C@@H](CC(C)C)C(=O)[O-])C(=O)C(O)=C3C(C)C)/C(=C/N[C@@H](CC(C)C)C(=O)[O-])C(=O)C(O)=C2C(C)C.[Na+].[Na+]		42.8 µM	1.3483 ×10⁴ L/mol	8.46 µM	> 47.4 µM	>5.6	1.37 µM	31.26		
Cc1cc2c(c(O)c1-c1c(C)cc3c(c1O)/C(=C/N[C@@H](Cc1c[nH]cn1)C(=O)[O-])C(=O)C(O)=C3C(C)C)/C(=C/N[C@@H](Cc1c[nH]cn1)C(=O)[O-])C(=O)C(O)=C2C(C)C.[Na+].[Na+]		51.2 µM	6.7205 ×10⁴ L/mol	41.2 µM	> 41.2 µM	>1	1.58 µM	32.38		
